System: MCF-7 breast cancer cells
Experiment: Microarray gene expression analysis (Agilent whole human genome 4 x 44K; compound vs DMSO, LIMMA log2 fold change)
Assay type: cell-based
Settings: cell cycle genes

In the case of `Oc1cccc(-c2nc(N3CCOCC3)c3oc4ncccc4c3n2)c1` [PI-103], the “TRIAP1 log2FC” value (Gene 51499) is reported as -0.86, the “DTL log2FC” value (Gene 51514) is reported as -0.14 and the “SIRT7 log2FC” value (Gene 51547) is reported as 0.32. For the same compound, the “CINP log2FC” value (Gene 51550) was -0.05, the “GINS2 log2FC” value (Gene 51659) was -0.80 and the “NUP54 log2FC” value (Gene 53371) was 0.41. The “PELO log2FC” value (Gene 53918) was -0.59, the “WNT4 log2FC” value (Gene 54361) was -0.42 and the “ANLN log2FC” value (Gene 54443) was 0.75. For the same compound, the “FBXW5 log2FC” value (Gene 54461) was 0.13, the “FAM64A log2FC” value (Gene 54478) was 0.10 and the “DDX4 log2FC” value (Gene 54514) was -0.13. The “BTG4 log2FC” value (Gene 54766) was 0.11, the “NDE1 log2FC” value (Gene 54820) was 0.40 and the “NSUN2 log2FC” value (Gene 54888) was -0.48. For the same compound, the “TTC19 log2FC” value (Gene 54902) was 0.67, the “TXNL4B log2FC” value (Gene 54957) was 0.28 and the “BANP log2FC” value (Gene 54971) was 0.16. The “AURKAIP1 log2FC” value (Gene 54998) was -0.22, the “PHIP log2FC” value (Gene 55023) was 1.07 and the “USP47 log2FC” value (Gene 55031) was 0.61. The “ZWILCH log2FC” value (Gene 55055) was 0.41, the “PIWIL2 log2FC” value (Gene 55124) was 0.06 and the “CEP192 log2FC” value (Gene 55125) was 0.35. The “CDCA8 log2FC” value (Gene 55143) was -0.04, the “RFWD3 log2FC” value (Gene 55159) was -0.62 and the “CEP55 log2FC” value (Gene 55165) was 0.99. For the same compound, the “CENPQ log2FC” value (Gene 55166) was 0.81, the “RIF1 log2FC” value (Gene 55183) was 0.39 and the “ARL8B log2FC” value (Gene 55207) was 0.45. For the same compound, the “RCBTB1 log2FC” value (Gene 55213) was 0.71, the “CCDC87 log2FC” value (Gene 55231) was 0.15 and the “STEAP3 log2FC” value (Gene 55240) was -0.44. For the same compound, the “MNS1 log2FC” value (Gene 55329) was 0.91, the “MCM10 log2FC” value (Gene 55388) was -0.91 and the “SMPD3 log2FC” value (Gene 55512) was -0.27. The “TRIM36 log2FC” value (Gene 55521) was 0.64, the “RBM38 log2FC” value (Gene 55544) was -0.58 and the “PRR5 log2FC” value (Gene 55615) was 0.45. For the same compound, the “PRPF40A log2FC” value (Gene 55660) was 1.01, the “CEP72 log2FC” value (Gene 55722) was 0.31 and the “CHFR log2FC” value (Gene 55743) was -0.11. For the same compound, the “NUP133 log2FC” value (Gene 55746) was 0.25, the “CCAR1 log2FC” value (Gene 55749) was 0.55 and the “CDK5RAP2 log2FC” value (Gene 55755) was 0.51. The “PCID2 log2FC” value (Gene 55795) was 0.32, the “CENPN log2FC” value (Gene 55839) was 0.30 and the “PPP2R2D log2FC” value (Gene 55844) was -0.17. For the same compound, the “HDAC8 log2FC” value (Gene 55869) was -0.36, the “PBK log2FC” value (Gene 55872) was 0.46 and the “BIN3 log2FC” value (Gene 55909) was -0.80. For the same compound, the “ERBB2IP log2FC” value (Gene 55914) was 1.07, the “RCC2 log2FC” value (Gene 55920) was -0.27 and the “KLHL9 log2FC” value (Gene 55958) was 0.04. The “TEX11 log2FC” value (Gene 56159) was 0.000672, the “TDRD1 log2FC” value (Gene 56165) was 0.04 and the “PARD3 log2FC” value (Gene 56288) was 0.46. The “RPRM log2FC” value (Gene 56475) was -0.24, the “CYP26B1 log2FC” value (Gene 56603) was 0.03 and the “SPIRE1 log2FC” value (Gene 56907) was 0.10. For the same compound, the “SMARCAD1 log2FC” value (Gene 56916) was 0.55, the “PRDM9 log2FC” value (Gene 56979) was 0.0757 and the “KIF15 log2FC” value (Gene 56992) was 1.30. For the same compound, the “PDXP log2FC” value (Gene 57026) was -0.93, the “PCBP4 log2FC” value (Gene 57060) was -0.27 and the “CASC5 log2FC” value (Gene 57082) was 0.12. For the same compound, the “PCNP log2FC” value (Gene 57092) was 0.60, the “NUP107 log2FC” value (Gene 57122) was 0.63 and the “CHMP1B log2FC” value (Gene 57132) was 0.39. For the same compound, the “PAK7 log2FC” value (Gene 57144) was 0.45, the “CSRP2BP log2FC” value (Gene 57325) was 0.27 and the “TTYH1 log2FC” value (Gene 57348) was -0.09. The “BIRC6 log2FC” value (Gene 57448) was 0.14, the “MTA3 log2FC” value (Gene 57504) was 0.33 and the “HACE1 log2FC” value (Gene 57531) was 0.51. The “TAOK1 log2FC” value (Gene 57551) was 0.40, the “USP37 log2FC” value (Gene 57695) was 0.38 and the “FANCM log2FC” value (Gene 57697) was 0.48. The “CCNB1IP1 log2FC” value (Gene 57820) was 0.84, the “RHOU log2FC” value (Gene 58480) was 1.56 and the “OVOL2 log2FC” value (Gene 58495) was 0.16. The “AVPI1 log2FC” value (Gene 60370) was 0.53, the “RINT1 log2FC” value (Gene 60561) was 0.44 and the “FAM111A log2FC” value (Gene 63901) was 0.33. The “DMRTC2 log2FC” value (Gene 63946) was -0.00414, the “CLSPN log2FC” value (Gene 63967) was -0.11 and the “TSPYL2 log2FC” value (Gene 64061) was -0.12. For the same compound, the “DPEP3 log2FC” value (Gene 64180) was 0.19, the “RFWD2 log2FC” value (Gene 64326) was -0.06 and the “CENPH log2FC” value (Gene 64946) was 0.38. For the same compound, the “MRPL41 log2FC” value (Gene 64975) was -0.47, the “INTS3 log2FC” value (Gene 65123) was -0.18 and the “PHACTR4 log2FC” value (Gene 65979) was 0.43. The “BOLL log2FC” value (Gene 66037) was -0.012, the “MIS12 log2FC” value (Gene 79003) was -0.76 and the “CENPM log2FC” value (Gene 79019) was 0.04. For the same compound, the “NUP37 log2FC” value (Gene 79023) was 0.16, the “ZNF655 log2FC” value (Gene 79027) was 0.68 and the “CENPO log2FC” value (Gene 79172) was -0.71. For the same compound, the “E2F8 log2FC” value (Gene 79733) was 0.23, the “FBXO31 log2FC” value (Gene 79791) was -0.10 and the “CSPP1 log2FC” value (Gene 79848) was 0.57. The “NEK11 log2FC” value (Gene 79858) was 0.47, the “MAP9 log2FC” value (Gene 79884) was 1.08 and the “NUP85 log2FC” value (Gene 79902) was 0.18. For the same compound, the “CEP76 log2FC” value (Gene 79959) was 0.32, the “CENPT log2FC” value (Gene 80152) was 0.00794 and the “DBF4B log2FC” value (Gene 80174) was -0.40. For the same compound, the “CEP290 log2FC” value (Gene 80184) was 0.83, the “CEP63 log2FC” value (Gene 80254) was 0.71 and the “CDK5RAP3 log2FC” value (Gene 80279) was 0.0271. The “CEP70 log2FC” value (Gene 80321) was 0.58, the “TUBB1 log2FC” value (Gene 81027) was -0.33 and the “NDEL1 log2FC” value (Gene 81565) was -0.13. For the same compound, the “FAM83D log2FC” value (Gene 81610) was -0.15, the “CAB39L log2FC” value (Gene 81617) was 0.08 and the “CCNL2 log2FC” value (Gene 81669) was -0.13. For the same compound, the “CABLES2 log2FC” value (Gene 81928) was -0.71, the “KIF18A log2FC” value (Gene 81930) was 1.18 and the “SESN2 log2FC” value (Gene 83667) was -0.54. The “SETDB2 log2FC” value (Gene 83852) was 1.23, the “GSG2 log2FC” value (Gene 83903) was -0.50 and the “RASSF4 log2FC” value (Gene 83937) was 0.14. The “MND1 log2FC” value (Gene 84057) was 0.59, the “HORMAD1 log2FC” value (Gene 84072) was 0.40 and the “USP44 log2FC” value (Gene 84101) was 0.0155. For the same compound, the “CEP78 log2FC” value (Gene 84131) was 0.36, the “GINS4 log2FC” value (Gene 84296) was -0.47 and the “RAB11FIP4 log2FC” value (Gene 84440) was 0.56. For the same compound, the “LZTS2 log2FC” value (Gene 84445) was 1.13, the “BRSK1 log2FC” value (Gene 84446) was 0.0146 and the “SPIRE2 log2FC” value (Gene 84501) was 0.56. The “PARD6B log2FC” value (Gene 84612) was 0.88, the “PPP1R9B log2FC” value (Gene 84687) was -0.13 and the “SPATA22 log2FC” value (Gene 84690) was 0.0637. The “BEX2 log2FC” value (Gene 84707) was 0.83, the “PSRC1 log2FC” value (Gene 84722) was 0.36 and the “KLHL22 log2FC” value (Gene 84861) was 0.21. For the same compound, the “TBRG1 log2FC” value (Gene 84897) was 0.08, the “MASTL log2FC” value (Gene 84930) was 0.43 and the “LSM10 log2FC” value (Gene 84967) was -1.02. For the same compound, the “CCNB3 log2FC” value (Gene 85417) was 0.31, the “LRRCC1 log2FC” value (Gene 85444) was 0.61 and the “DIXDC1 log2FC” value (Gene 85458) was 0.018. The “PNPT1 log2FC” value (Gene 87178) was -0.10, the “LMLN log2FC” value (Gene 89782) was 0.82 and the “KLHL13 log2FC” value (Gene 90293) was 0.07. The “GADD45GIP1 log2FC” value (Gene 90480) was -0.25, the “SLFN11 log2FC” value (Gene 91607) was -0.61 and the “CENPL log2FC” value (Gene 91687) was -0.11. The “CABLES1 log2FC” value (Gene 91768) was 1.68, the “SYCE1 log2FC” value (Gene 93426) was -0.08 and the “ACTR8 log2FC” value (Gene 93973) was 0.12. For the same compound, the “TP53INP1 log2FC” value (Gene 94241) was 0.89, the “CDCA5 log2FC” value (Gene 113130) was 0.0109 and the “TUBGCP5 log2FC” value (Gene 114791) was 0.12.
